According to patent US12194033B2, “Glycine receptor modulators and methods of use” (University of Pittsburgh—Of the Commonwealth System of …, priority 2017, dated 2025):
Values joined by “and” are separate entries in the source; they are usually repeats but may differ in a detail not shown here. Equal values may be shown once.

How the values were obtained:
[1] = target: NOR (Homo sapiens, UniProt P41146); assay: Radioligand binding assay, off-target profiling; details: 10 M MJPY1, mean, n = 4
[2] = target: DOR (Homo sapiens, UniProt P41143); assay: Radioligand binding assay, off-target profiling; details: 10 M MJPY1, mean, n = 4
[3] = test system: CD1 mice; assay: Hargreaves test under CFA-induced hyperalgesic conditions in CD1 mice; format: in vivo
Method: Under CFA-induced hyperalgesic conditions, the maximum possible effect, % MPE=(response−baseline)/(cut-off time−baseline), was measured for the application of compound 1 alone (0.05 mg/kg, blue, n=12; 0.01 mg/kg, orange, n=4), morphine alone (0.1 mg/kg, green, n=8), and compound 1 with morphine at three different dosage combinations: 0.05 mg/kg compound 1 with 0.1 mg/kg morphine (light blue, n=6), 0.01 mg/kg compound 1 with 0.1 mg/kg morphine (pink, n=10), and 0.01 mg/kg compound 1 with 0.01 mg/kg morphine (red, n=4). […] Error bars designate the standard error of the mean.
0.05 mg/kg compound 1 was tested for tolerance in CFA-treated mice (red). Under CFA-induced hyperalgesic conditions (24 hours post-application of CFA), 0.05 mg/kg compound 1 was administered to CD1 mice and responses to the Hargreaves test were measured immediately after the initial injection (application time=0) and again after a repeated dose given 1.5 hours (FIG. 7A) or 24 hours (FIG. 7B) after the effects of the first dose wore off. The black circles represent the responses of naïve mice (i.e., no administration of compound 1 or CFA), and the red circles represent the responses of mice receiving compound 1 under CFA-induced hyperalgesic conditions. […] Error bars designate the standard error of the mean (n=4).
Responses of CD1 mice to the Hargreaves test were assessed after application of 0.1 mg/kg of the indicated compounds (black) or vehicle (white) under CFA-induced hyperalgesic conditions as shown in FIGS. 8A-8H. The assessed compounds were compounds 1 (8A), 2 (8B), 3 (8C), 4 (8D), 5 (8E), 6 (8F), 7 (8G), and 8 (8H). […] Error bars designate the standard error of the mean (n≥4).
Dose response curves from the Hargreaves test in mice with a CFA-inflamed left hind paw at 1.5 and 2 hr after intraperitoneal injection of compound 1. Percent Maximum Possible Effect (% MPE) was calculated from paw withdrawal latencies.
Tolerance to compound 1 (MJPY1) and compound 3 (MJPY2) was measured by repeated dosing in the Hargreaves Test. […] Mice (n=6/group) received repeated i.p. injections of vehicle or 0.1 mg/kg compound 1 (MJPY1) or compound 3 (MJPY2) once a day for 5 days. CFA inflammation was induced on day 4, and PWL was measured 0.5 hr before and every 10 min after treatment on day 5. Data were binned to 30-min blocks (mean±SEM).

[4] = target: T1, human α3GlyR (Homo sapiens, UniProt O75311); assay: In vitro functional electrophysiology in Xenopus laevis oocytes; format: cell-based
T1 construct: expressed in transfected cells; host or cells: Xenopus laevis oocytes
T1 sequence (O75311 34-464): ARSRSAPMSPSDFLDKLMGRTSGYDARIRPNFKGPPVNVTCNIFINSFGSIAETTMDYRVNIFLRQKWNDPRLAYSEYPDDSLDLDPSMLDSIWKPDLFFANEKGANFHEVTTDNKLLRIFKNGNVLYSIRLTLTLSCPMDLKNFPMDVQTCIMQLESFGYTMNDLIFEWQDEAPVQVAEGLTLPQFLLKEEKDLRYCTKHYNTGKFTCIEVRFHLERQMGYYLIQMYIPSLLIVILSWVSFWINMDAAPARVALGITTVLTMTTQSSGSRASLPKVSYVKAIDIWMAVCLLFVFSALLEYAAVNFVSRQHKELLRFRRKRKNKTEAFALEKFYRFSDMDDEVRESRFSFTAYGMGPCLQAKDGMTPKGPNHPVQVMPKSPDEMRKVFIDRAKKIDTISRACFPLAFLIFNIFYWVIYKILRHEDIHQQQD
Method: I/Io is calculated as the ratio of the current measured in the presence (I) and absence (Io) of compound 1 or THC at the indicated concentrations. Error bars designate the standard error of the mean (n≥4).
FIGS. 2A and 2B are bar graphs showing the effect of compound 1 on modulation of human glycine receptor subtypes (α1GlyR, α3GlyR, α1βGlyR, and α3βGlyR) expressed in Xenopus laevis oocytes activated by 2% (FIG. 2A) and 20% (FIG. 2B) maximal effective concentration of glycine. I/Io was calculated as the ratio of the current measured in the presence (I) and absence (Io) of 10 μM compound 1. Error bars designate the standard error of the mean (n≥4).
The compounds disclosed in Table 1 were assessed for in vitro modulation of human GlyRs. […] The assessed compounds were compounds 1 (3A), 2 (3B), 3 (3C), 4 (3D), 5 (3E), 6 (3F), 7 (3G), and 8 (3H). I/Io was calculated as the ratio of the current measured in the presence (I) and absence (Io) of 10 μM of the indicated compound. […]
MJPY1 potentiates α3GlyR through binding to the THC-binding site near S296 in the transmembrane domain (TMD). […] Data were recorded at EC2 agonist for the indicated channels and are reported as the ratio of currents in the presence (I) and absence (Io) of 10 μM compound 1 (MJPY1). […]

[5] = target: KOR (Homo sapiens, UniProt P41145); assay: Radioligand binding assay, off-target profiling; details: 10 M MJPY1, mean, n = 4
Sequence of KOR (P41145 whole entry): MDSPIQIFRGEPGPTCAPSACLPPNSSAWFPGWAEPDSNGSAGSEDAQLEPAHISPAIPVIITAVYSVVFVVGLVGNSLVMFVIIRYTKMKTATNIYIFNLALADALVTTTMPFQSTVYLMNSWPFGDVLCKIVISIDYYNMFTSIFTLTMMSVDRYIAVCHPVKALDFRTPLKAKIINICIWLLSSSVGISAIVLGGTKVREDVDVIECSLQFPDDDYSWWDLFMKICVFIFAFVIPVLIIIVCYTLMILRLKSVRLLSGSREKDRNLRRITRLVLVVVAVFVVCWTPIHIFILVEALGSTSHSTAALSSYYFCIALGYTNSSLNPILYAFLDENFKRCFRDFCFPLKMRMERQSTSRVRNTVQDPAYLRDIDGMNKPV

Sequence of DOR (P41143 whole entry): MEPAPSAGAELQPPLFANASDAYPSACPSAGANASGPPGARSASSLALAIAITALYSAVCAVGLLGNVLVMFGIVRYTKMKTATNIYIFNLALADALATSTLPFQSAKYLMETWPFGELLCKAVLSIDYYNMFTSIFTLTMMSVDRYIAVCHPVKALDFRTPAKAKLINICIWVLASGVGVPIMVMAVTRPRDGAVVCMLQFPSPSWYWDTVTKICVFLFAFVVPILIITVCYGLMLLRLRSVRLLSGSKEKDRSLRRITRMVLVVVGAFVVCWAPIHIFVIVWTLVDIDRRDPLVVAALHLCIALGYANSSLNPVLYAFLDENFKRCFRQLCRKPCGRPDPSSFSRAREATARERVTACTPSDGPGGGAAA
Sequence of NOR (P41146 whole entry): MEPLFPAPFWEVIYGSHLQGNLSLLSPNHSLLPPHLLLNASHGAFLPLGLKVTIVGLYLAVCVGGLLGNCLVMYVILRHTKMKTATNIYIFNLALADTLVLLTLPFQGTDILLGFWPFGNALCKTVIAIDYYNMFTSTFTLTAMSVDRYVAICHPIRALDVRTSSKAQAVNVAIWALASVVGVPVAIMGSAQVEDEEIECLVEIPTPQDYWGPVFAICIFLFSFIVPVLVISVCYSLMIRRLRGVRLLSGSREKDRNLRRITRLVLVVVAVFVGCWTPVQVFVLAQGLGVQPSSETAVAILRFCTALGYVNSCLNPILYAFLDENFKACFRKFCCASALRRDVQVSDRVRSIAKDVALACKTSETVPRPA

Q: For `NC(=O)c1cccc(CNC(=O)c2ccc3c4c(cccc24)CC3)c1` [compound 1, N-[(3-carbamoylphenyl)-methyl]-1,2-dihydroacenaphthylene-5-carboxamide], which “% Inhibition NOR” value [1] is on record?
A: Its value is −16.8%.

Q: What about the “% Inhibition DOR” value [2] of the same compound?
A: The value was 7.1%.

Q: And the “tolerance (time to paw withdrawal, first vs second dosing)” value ([3]; 0.05 mg/kg, CD1 mice, CFA, repeated dose 1.5 or 24 hours after first dose wore off)?
A: The value was “No tolerance”.

Q: And the “tolerance after repeated dosing (PWL)” value ([3]; 0.1 mg/kg i.p. once a day for 5 days, CFA on day 4)?
A: Its value is “negligible tolerance”.

Q: What about the “response time for paw withdrawal compared to vehicle” value ([3]; 0.1 mg/kg, CD1 mice, CFA-induced hyperalgesic conditions) of the same compound?
A: The value was “increase in the response time”.

Q: And the “EC50 for inflammatory pain (% MPE dose response, Hill fit)” value ([3]; CFA-inflamed left hind paw, 1.5 and 2 hr after intraperitoneal injection (both time points), CD1 mice)?
A: Its value is ~0.030 mg/kg and ~0.03 mg/kg.

Q: What about the “potentiation of α3GlyR (I/Io)” value ([4]; EC2 agonist, 10 μM compound) of the same compound?
A: The value was “potentiates”.

Q: What about the “modulation of human GlyRs (I/Io)” value ([4]; Xenopus laevis oocytes, 2% maximal effective concentration of glycine) of the same compound?
A: The value was “modulated”.

Q: What about the “% Inhibition KOR” value [5] of the same compound?
A: The value was 5.0%.
